Tested on: P. aeruginosa, PAM1723, overexpressing the MexAB-OprM efflux pump
Type: cell-based, Pseudomonas aeruginosa
Details: lowest EPI concentration giving antibacterial activity with levofloxacin at 1/8 of its MIC, MHB, 20 h at 35° C.
Description: All EPI compounds were readily soluble in water and stock solutions were prepared at a final concentration of 10 mg/ml. Stock solutions were further diluted, according to the needs of the particular assay, in Mueller Hinton Broth (MHB). Stock solution was stored at […].
The checkerboard assay was performed in microtiter plates. […] EPIs were diluted in the y-axis, each row containing a single concentration of an EPI. […] The assay was performed in MHB with a final bacterial inoculum of 5 times 10^5 CFU/ml (from an early-log phase culture). Microtiter plates were incubated during 20 h at 35° C. and were read using a microtiter plate reader (Molecular Devices) at 650 nm as well as visual observation using a microtiter plate-reading mirror.

Row | SMILES | MPC8 (Minimum Potentiating Concentration)
1 | NCCN(CCN)C(=O)CC[C@H](N)C(=O)N[C@H](CCc1ccc(C(F)(F)F)cc1)C(=O)NCC1OB(O)c2ccccc21 (stereo in doubt) [Compound 36, (S)-2-amino-N5,N5-bis(2-aminoethyl)-N1-((R)-1-(((R)-1-hydroxy-1,3-dihydrobenzo[c][1,2]oxaborol-3-yl)methylamino)-1-oxo-4-(4-(trifluoromethyl)phenyl)butan-2-yl)pentanediamide] | B (B = MPC8 of 2.5 μg/ml to less than 10 μg/mL.)
2 | NCCN(CCN)C(=O)CC[C@H](N)C(=O)N[C@H](Cc1ccc(C(F)(F)F)cc1)C(=O)Nc1ccc2c(c1)B(O)OC2 [Compound 1, (S)-2-amino-N5,N5-bis(2-aminoethyl)-N1-((R)-1-(1-hydroxy-1,3-dihydrobenzo[c][1,2]oxaborol-6-ylamino)-1-oxo-3-(4-(trifluoromethyl)phenyl)propan-2-yl)pentanediamide] | C (C = MPC8 of 10 μg/mL or greater.)
3 | NCCN(CCN)C(=O)CC[C@H](N)C(=O)N[C@H](Cc1ccc(C(F)(F)F)cc1)C(=O)NCc1ccc(B(O)O)cc1 [Compound 3, 4-(((R)-2-((S)-2-amino-5-(bis(2-aminoethyl)amino)-5-oxopentanamido)-3-(4-(trifluoromethyl)phenyl)propanamido)methyl)phenylboronic acid] | C (C = MPC8 of 10 μg/mL or greater.)
4 | NCCN(CCN)C(=O)C[C@H](N)C(=O)N[C@H](C(=O)Nc1ccc2c(c1)B(O)OC2)[C@H](O)c1ccc(C(F)(F)F)cc1 [Compound 4, (S)-2-amino-N4,N4-bis(2-aminoethyl)-N1-((1R,2S)-1-hydroxy-3-(1-hydroxy-1,3-dihydrobenzo[c][1,2]oxaborol-6-ylamino)-3-oxo-1-(4-(trifluoromethyl)phenyl)propan-2-yl)succinamide] | C (C = MPC8 of 10 μg/mL or greater.)
5 | NCCN(CCN)C(=O)C[C@H](N)C(=O)N[C@H](Cc1ccc(C(F)(F)F)cc1)C(=O)Nc1ccc2c(c1)B(O)OC2 [Compound 5, (S)-2-amino-N4,N4-bis(2-aminoethyl)-N1-((R)-1-(1-hydroxy-1,3-dihydrobenzo[c][1,2]oxaborol-6-ylamino)-1-oxo-3-(4-(trifluoromethyl)phenyl)propan-2-yl)succinamide] | C (C = MPC8 of 10 μg/mL or greater.)
6 | NCCN(CCN)C(=O)C[C@H](N)C(=O)N[C@H](CCc1ccc(C(F)(F)F)cc1)C(=O)Nc1ccc2c(c1)B(O)OC2 [Compound 7, (S)-2-amino-N4,N4-bis(2-aminoethyl)-N1-((R)-1-(1-hydroxy-1,3-dihydrobenzo[c][1,2]oxaborol-6-ylamino)-1-oxo-4-(4-(trifluoromethyl)phenyl)butan-2-yl)succinamide] | B (B = MPC8 of 2.5 μg/ml to less than 10 μg/mL.)
7 | NCCN(CCN)C(=O)CC[C@H](N)C(=O)N[C@H](Cc1ccc(C(F)(F)F)cc1)C(=O)Nc1ccccc1B(O)O [Compound 8, 2-((R)-2-((S)-2-amino-5-(bis(2-aminoethyl)amino)-5-oxopentanamido)-3-(4-(trifluoromethyl)phenyl)propanamido)phenylboronic acid] | C (C = MPC8 of 10 μg/mL or greater.)
8 | NCCN(CCN)C(=O)CC[C@H](N)C(=O)N[C@@H](Cc1ccc(C(F)(F)F)cc1)C(=O)Nc1ccccc1B(O)O [Compound 9, 2-((S)-2-((S)-2-amino-5-(bis(2-aminoethyl)amino)-5-oxopentanamido)-3-(4-(trifluoromethyl)phenyl)propanamido)phenylboronic acid] | C (C = MPC8 of 10 μg/mL or greater.)
9 | NCCN(CCN)C(=O)C[C@H](N)C(=O)N[C@H](Cc1ccc(C(F)(F)F)cc1)C(=O)Nc1cc(B(O)O)cc(C(F)(F)F)c1 [Compound 10, 3-((R)-2-((S)-2-amino-4-(bis(2-aminoethyl)amino)-4-oxobutanamido)-3-(4-(trifluoromethyl)phenyl)propanamido)-5-(trifluoromethyl)phenylboronic acid] | B (B = MPC8 of 2.5 μg/ml to less than 10 μg/mL.)
10 | NCCN(CCN)C(=O)C[C@H](N)C(=O)N[C@@H](Cc1ccc(C(F)(F)F)cc1)C(=O)Nc1cc(B(O)O)cc(C(F)(F)F)c1 [Compound 11, 3-((S)-2-((S)-2-amino-4-(bis(2-aminoethyl)amino)-4-oxobutanamido)-3-(4-(trifluoromethyl)phenyl)propanamido)-5-(trifluoromethyl)phenylboronic acid] | B (B = MPC8 of 2.5 μg/ml to less than 10 μg/mL.)
11 | NCCN(CCN)C(=O)CC[C@H](N)C(=O)N[C@H](CCC1CCCCC1)C(=O)Nc1cc(B(O)O)cc(C(F)(F)F)c1 [Compound 12, 3-((R)-2-((S)-2-amino-5-(bis(2-aminoethyl)amino)-5-oxopentanamido)-4-cyclohexylbutanamido)-5-(trifluoromethyl)phenylboronic acid] | A (A = MPC8 of less than 2.5 μg/mL.)
12 | NCCN(CCN)C(=O)CC[C@H](N)C(=O)N[C@H](CCc1ccc(C(F)(F)F)cc1)C(=O)Nc1cc(B(O)O)cc(C(F)(F)F)c1 [Compound 13, 3-((R)-2-((S)-2-amino-5-(bis(2-aminoethyl)amino)-5-oxopentanamido)-4-(4-(trifluoromethyl)phenyl)butanamido)-5-(trifluoromethyl)phenylboronic acid] | B (B = MPC8 of 2.5 μg/ml to less than 10 μg/mL.)
13 | NCCN(CCN)C(=O)CC[C@H](N)C(=O)N[C@H](Cc1ccc(C(F)(F)F)cc1)C(=O)Nc1cc(B(O)O)cc(C(F)(F)F)c1 [Compound 15, 3-((R)-2-((S)-2-amino-5-(bis(2-aminoethyl)amino)-5-oxopentanamido)-3-(4-(trifluoromethyl)phenyl)propanamido)-5-(trifluoromethyl)phenylboronic acid] | B (B = MPC8 of 2.5 μg/ml to less than 10 μg/mL.)
14 | NCCN(CCN)C(=O)CC[C@H](N)C(=O)N[C@H](Cc1ccc(C(F)(F)F)cc1)C(=O)Nc1ccc(C(F)(F)F)c(B(O)O)c1 [Compound 16, 5-((R)-2-((S)-2-amino-5-(bis(2-aminoethyl)amino)-5-oxopentanamido)-3-(4-(trifluoromethyl)phenyl)propanamido)-2-(trifluoromethyl)phenylboronic acid] | C (C = MPC8 of 10 μg/mL or greater.)
15 | NCCN(CCN)C(=O)CC[C@H](N)C(=O)N[C@H](Cc1ccc(C(F)(F)F)cc1)C(=O)Nc1ccc(B(O)O)c(C(F)(F)F)c1 [Compound 17, 4-((R)-2-((S)-2-amino-5-(bis(2-aminoethyl)amino)-5-oxopentanamido)-3-(4-(trifluoromethyl)phenyl)propanamido)-2-(trifluoromethyl)phenylboronic acid] | C (C = MPC8 of 10 μg/mL or greater.)
16 | N[C@@H]1C[C@H](N)CN(C(=O)CC[C@H](N)C(=O)N[C@H](Cc2ccc(C(F)(F)F)cc2)C(=O)Nc2cc(B(O)O)cc(C(F)(F)F)c2)C1 [Compound 18, 3-((R)-2-((S)-2-amino-5-((3R,5S)-3,5-diaminopiperidin-1-yl)-5-oxopentanamido)-3-(4-(trifluoromethyl)phenyl)propanamido)-5-(trifluoromethyl)phenylboronic acid] | B (B = MPC8 of 2.5 μg/ml to less than 10 μg/mL.)
17 | N[C@@H]1CC(NC(=O)CC[C@H](N)C(=O)N[C@H](Cc2ccc(C(F)(F)F)cc2)C(=O)Nc2cc(B(O)O)cc(C(F)(F)F)c2)C[C@H](N)C1 (stereo partly drawn) [Compound 19, 3-((R)-2-((S)-2-amino-5-((1R,3R,5S)-3,5-diaminocyclohexylamino)-5-oxopentanamido)-3-(4-(trifluoromethyl)phenyl)propanamido)-5-(trifluoromethyl)phenylboronic acid] | B (B = MPC8 of 2.5 μg/ml to less than 10 μg/mL.)
18 | NCC(O)(CN)CNC(=O)CC[C@H](N)C(=O)N[C@H](CCc1ccc(C(F)(F)F)cc1)C(=O)Nc1cc(B(O)O)cc(C(F)(F)F)c1 [Compound 21, 3-((R)-2-((S)-2-amino-5-(3-amino-2-(aminomethyl)-2-hydroxypropylamino)-5-oxopentanamido)-4-(4-(trifluoromethyl)phenyl)butanamido)-5-(trifluoromethyl)phenylboronic acid] | B (B = MPC8 of 2.5 μg/ml to less than 10 μg/mL.)
19 | NCC(O)(CN)CNC(=O)CC[C@H](N)C(=O)N[C@H](CCc1ccc(C(F)(F)F)cc1)C(=O)Nc1cccc(B(O)O)c1 [Compound 22, 3-((R)-2-((S)-2-amino-5-(3-amino-2-(aminomethyl)-2-hydroxypropylamino)-5-oxopentanamido)-4-(4-(trifluoromethyl)phenyl)butanamido) phenylboronic acid] | B (B = MPC8 of 2.5 μg/ml to less than 10 μg/mL.)
20 | N[C@@H]1C[C@H](N)C[C@H](NC(=O)CC[C@H](N)C(=O)N[C@H](CCc2ccc(C(F)(F)F)cc2)C(=O)Nc2cccc(B(O)O)c2)C1 [Compound 23, 3-((R)-2-((S)-2-amino-5-((1S,3R,5S)-3,5-diaminocyclohexylamino)-5-oxopentanamido)-4-(4-(trifluoromethyl)phenyl)butanamido)phenylboronic acid] | B (B = MPC8 of 2.5 μg/ml to less than 10 μg/mL.)
21 | N[C@@H]1C[C@H](N)CN(C(=O)CC[C@H](N)C(=O)N[C@H](CCc2ccc(C(F)(F)F)cc2)C(=O)Nc2cccc(B(O)O)c2)C1 [Compound 24, 3-((R)-2-((S)-2-amino-5-((3R,5S)-3,5-diaminopiperidin-1-yl)-5-oxopentanamido)-4-(4-(trifluoromethyl)phenyl)butanamido)phenylboronic acid] | B (B = MPC8 of 2.5 μg/ml to less than 10 μg/mL.)

Source: US8933018B2, “Boron containing polybasic bacterial efflux pump inhibitors and therapeutic uses thereof” (priority 2011, dated 2015)
